Data reported in ChEMBL document CHEMBL4392873, “Transformation of Santonin to a Naproxen Analogue with Anti-Inflammatory Activity” (J Nat Prod, 2019).

Assays:
[1] = system: Prostaglandin G/H synthase 2; assay: Inhibition of COX2 (unknown origin) assessed as reduction in prostaglandin E2 production at 30 uM incubated for 10 mins before arachidonic acid addition and measured after 25 mins by LC-MS/MS analysis; conditions: Homo sapiens
[2] = Selectivity index, ratio of IC50 for ovine COX1 to IC50 for COX2 (unknown origin)
[3] = target: Prostaglandin G/H synthase 1 (Ovis aries) (UniProt P05979); assay: Inhibition of ovine COX1 assessed as reduction in prostaglandin E2 production at 30 uM incubated for 10 mins before arachidonic acid addition and measured after 25 mins by LC-MS/MS analysis

inhibition [1]: 21.8%
Ratio IC50 [2]: 0.496
inhibition [3]: 52.9%
SMILES: COC(=O)[C@@H](C)c1ccc2c(C)cc(O)c(C)c2c1
